According to patent publication US6136831A, “Pyrazole derivatives and COX inhibitors containing them” (Grelan Pharmaceutical Co., Ltd., priority 1997, dated 2000):

What was measured:
COX-1 = target: T1, COX-1 (Ovis aries, UniProt P05979); experiment: Inhibitory Activity on COX-1 (Assay Example 1); type: biochemical; conditions: Table 1; read-out: COX Inhibiting Activity IC50, COX-1
T1 construct: purchased Cayman Chemical Co
T1 sequence (P05979 25-600): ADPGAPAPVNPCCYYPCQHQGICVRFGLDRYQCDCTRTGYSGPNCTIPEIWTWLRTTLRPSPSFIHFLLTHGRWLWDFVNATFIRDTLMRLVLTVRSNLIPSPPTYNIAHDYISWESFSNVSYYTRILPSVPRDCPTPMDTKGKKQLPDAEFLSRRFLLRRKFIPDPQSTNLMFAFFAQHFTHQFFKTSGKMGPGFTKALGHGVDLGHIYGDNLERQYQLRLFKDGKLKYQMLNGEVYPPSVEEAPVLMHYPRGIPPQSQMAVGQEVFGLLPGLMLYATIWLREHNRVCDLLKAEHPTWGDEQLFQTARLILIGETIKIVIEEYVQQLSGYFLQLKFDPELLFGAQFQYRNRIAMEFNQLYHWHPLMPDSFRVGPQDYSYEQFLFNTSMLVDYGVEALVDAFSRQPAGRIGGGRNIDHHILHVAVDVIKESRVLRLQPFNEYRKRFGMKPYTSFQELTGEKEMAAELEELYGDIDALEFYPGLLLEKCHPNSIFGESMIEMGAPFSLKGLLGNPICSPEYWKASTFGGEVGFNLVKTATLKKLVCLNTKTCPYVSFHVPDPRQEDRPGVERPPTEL

COX-2 = target: T2, COX-2 (Ovis aries, UniProt P79208); experiment: Inhibitory Activity on COX-2 (Assay Example 1); type: biochemical; conditions: Table 1; for IC50: read-out: COX Inhibiting Activity IC50, COX-2
T2 construct: purchased Cayman Chemical Co
T2 sequence (P79208 17-603): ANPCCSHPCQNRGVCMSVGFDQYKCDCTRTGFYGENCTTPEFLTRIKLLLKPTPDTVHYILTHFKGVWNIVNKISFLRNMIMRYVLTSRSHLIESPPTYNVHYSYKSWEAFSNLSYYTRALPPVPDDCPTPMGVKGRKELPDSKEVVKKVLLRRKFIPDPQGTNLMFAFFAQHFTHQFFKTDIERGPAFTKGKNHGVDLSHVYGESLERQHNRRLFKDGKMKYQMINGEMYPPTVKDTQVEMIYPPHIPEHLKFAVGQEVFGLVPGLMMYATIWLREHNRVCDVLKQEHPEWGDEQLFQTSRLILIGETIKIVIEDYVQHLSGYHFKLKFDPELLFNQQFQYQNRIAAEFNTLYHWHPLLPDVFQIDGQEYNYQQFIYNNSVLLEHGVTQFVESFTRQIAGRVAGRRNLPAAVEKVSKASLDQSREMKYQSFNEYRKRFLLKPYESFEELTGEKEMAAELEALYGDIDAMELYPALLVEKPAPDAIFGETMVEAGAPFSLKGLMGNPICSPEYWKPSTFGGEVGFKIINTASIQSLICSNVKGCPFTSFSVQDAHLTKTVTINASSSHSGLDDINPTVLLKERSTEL

[1] = test system: rat adjuvant-induced arthritis; experiment: Inhibitory Action on Adjuvant Arthritis (1) (Assay Example 2); type: in vivo, male Fisher rats; conditions: oral 5 mg/kg; for % Inhibition against Change in Relative Weight, Spleen / % Inhibition against Change in Relative Weight, Thymus: 7 times, relative weight per 100 g body weight, day 21; for % Inhibition against Reduction of Gain in Body Weight / Edema Inhibition (%) Left Hind Paw (Non-inflamed Paw) / Edema Inhibition (%) Right Hind Paw (Inflamed Paw) / Inflammation Score Inhibition (%): days 0, 3, 7, 10, 14, 17, 20; for % Inhibition against Reduction of Gain in Body Weight / Edema Inhibition (%) Left Hind Paw (Non-inflamed Paw) / Edema Inhibition (%) Right Hind Paw (Inflamed Paw): measured day 21; for Inflammation Score Inhibition (%): scored day 21
Protocol: Dry Mycobacterium butyricum killed organisms (Difco) were suspended in liquid paraffin to make the concentration 1% and the resulting suspension used as an adjuvant. The adjuvant (50 μl) was subplantarly injected to the right hind paw of male Fisher rats (5 to 6 animals per group) to raise arthritis. Each test compound was suspended in a 0.5% aqueous sodium carboxymethylcellulose (CMC-Na) solution and orally administered to the rats at a dose of 5 mg/kg on days 0, 3, 7, 10, 14, 17 and 20 (7 times in total) after the arthritis induction. On the 21st disease day the rats were measured for their body weight and the edema of their right and left hind paws. Simultaneously, systemic inflammatory states were scored. In addition, each of their spleen and thymus was taken out by excision to measure their wet weight and their relative weight per 100 g body weight was calculated.

[2] = test system: acetic acid writhing in male ddY mice; experiment: Analgesic Action in Acetic Acid Writhing (Assay Example 3); type: in vivo
Protocol: A 0.7% acetic acid solution was intraperitoneally administered to male ddY mice at a dose of 10 ml/kg body weight. The frequency of writhing manifested was counted as an index of pains for a period of 10 minutes starting from the 10th minute after the administration. Ten or thirty minutes prior to the acetic acid administration, each test compound was orally given.

[3] = test system: oxazolone-induced dermal delayed type hypersensitivity (IV-type allergy); experiment: Inhibitory Action on Oxazolone-Induced Dermal Delayed Type Hypersensitivity (Assay Example 8); type: in vivo, mice; conditions: for edema inhibition / increase in edematized auricle thickness: 4 days, 24 hours after challenge; for increase in edematized auricle thickness: control (0.12±0.03) mm
Protocol: Sensitization was conducted by topically applying 150 μl of 1% oxazolone solution (ethanol:acetone=3:1) to mice (5 to 6 animals per group), the abdominal and pectral regions of which were shaved in advance. Four days after the sensitization, 10 μl of 0.8% oxazolone solution (in olive oil) was topically applied to the […] left auricle to raise the response. Twenty-four hours later the auricular thickness was measured using a dial-gauge (Mitsutoyo Co.). Values obtained by subtracting auricular thickness data prior to the challenge were taken as indexes of the response. […] One hour after the final administration, the challenge was conducted.

[4] = test system: Arthus reaction (III-type allergy); experiment: Inhibitory Action on Arthus Reaction (Assay Example 7); conditions: for increase in edematized left hind paw volume / edema inhibition: one hour prior to ovalbumin; for increase in edematized left hind paw volume: 2 hours, control (0.74±0.06) ml; for edema inhibition: significant, not more than 1% error level
Protocol: Rat anti-ovalbumin serum was prepared by the method given below. One mg of ovalbumin was dissolved in 1 ml of physiological saline and divided to two aliquots. The ovalbumin solution was intramuscularly administered to the femoral portion of male SD rats. Simultaneously, 0.5 ml of 0.05% Mycobacterium butyricum suspension as a Freund's complete adjuvant was intraperitoneally administered to the rats. Three days later, the same treatments were repeated. On the 12th day after the initial sensitization,antisera were collected.
Two hours later, the left hind paw volume was measured using a plethysmometer and the increases in paw volume were determined by comparing with those prior to the Arthus reaction induction. […] Each compound was suspended in a 0.5% aqueous CMC-Na solution and orally administered one hour prior to the ovalbumin administration. Control groups received only a 0.5% aqueous CMC-Na solution. The test of significance was conducted by Dunnett's multiple range test.

[5] = test system: adjuvant arthritis in rats; experiment: Inhibitory Action on Adjuvant Arthritis (2) (Assay Example 6); type: in vivo, male F344/Du (Fisher) rats; conditions: oral 1 mg/5 ml/kg daily, 17 days
Protocol: A 1% dry Mycobacterium tuberculosis H37 RA killed organism suspension in liquid paraffin was employed as an adjuvant. The adjuvant suspension (50 μl) was subplantarly administered to the right hind paw of male F344/Du (Fisher) rats (5 to 6 animals per group) to raise arthritis. […] The next day after the final administration, the rats were measured for their body weight and the edema of their right and left hind paws. Simultaneously, systemic inflammatory states were scored. In addition, each of their spleen and thymus was taken out by excision to measure their wet weight and their relative weight per 100 g body weight was determined.

Row | IC50 (COX-1) [µM] | COX-1/COX-2 (ratio of IC50 values) (COX-2) | IC50 (COX-2) [µM] | SMILES | % Inhibition against Change in Relative Weight, Spleen [1] [%] | % Inhibition against Change in Relative Weight, Thymus [1] [%] | % Inhibition against Reduction of Gain in Body Weight [1] [%] | Edema Inhibition (%) Left Hind Paw (Non-inflamed Paw) [1] [%] | Edema Inhibition (%) Right Hind Paw (Inflamed Paw) [1] [%] | Inflammation Score Inhibition (%) [1] [%] | further results
1 | > 100 | > 263 | 0.38 | CS(=O)(=O)c1ccc(-n2nc(C(F)(F)F)cc2-c2nc3ccc(F)cc3s2)cc1 [Example 2, 6-Fluoro-2-[1-(4-methylsulfonylphenyl)-3-trifluoromethyl-1H-pyrazol-5-yl]benzothiazole] | 2.5 | 56.7 | 75.9 | 91 | 94 | 97 | % Inhibition of Writhing Response ([2]; 10 mg/kg oral, Administration Point 1: 10 minutes prior to acetic acid): 49%; % Inhibition of Writhing Response ([2]; 10 mg/kg oral, Administration Point 2: 30 minutes prior to acetic acid): 57%
2 | > 100 | > 23.3 | 4.3 | CS(=O)(=O)c1ccc(-n2nc(C(F)(F)F)cc2-c2nc3c(F)cccc3s2)cc1 [Example 6, 4-Fluoro-2-[1-(4-methylsulfonylphenyl)-3-trifluoromethyl-1H-pyrazol-5-yl]benzothiazole] | 42.6 | 130.3 | 104.6 | 105 | 84 | 97 | edema inhibition ([3]; 30 mg/kg oral daily): 48%; increase in edematized auricle thickness ([3]; 30 mg/kg oral daily): 0.06±0.01 mm; action on oxazolone-induced delayed type hypersensitivity, in words ([3]; index test for immunoregulating activity, IV-type allergy): controlling actions; increase in edematized left hind paw volume ([4]; 50 mg/kg oral): 0.54 ± 0.04 mL; edema inhibition ([4]; 50 mg/kg oral): 27%; action on Arthus reaction, in words ([4]; index test for immunoregulating activity, III-type allergy): controlling actions
3 | 47 | 142 | 0.33 | NS(=O)(=O)c1ccc(-n2nc(C(F)(F)F)cc2-c2nc3ccc(F)cc3s2)cc1 [Example 13, 4-[5-(6-Fluorobenzothiazol-2-yl)-3-trifluoromethyl-1H-pyrazol-1-yl]benzenesulfonamide] | -10.5 | 71.3 | 48.6 | 76 | 71 | 78 | –
4 | – | – | – | COc1ccc2c(c1)c(CC(=O)O)c(C)n2C(=O)c1ccc(Cl)cc1 [Indomethacin, reference compound] | – | – | 19.8 | 75 | 43 | 51 | % Inhibition of Writhing Response ([2]; po, 3 mg/kg): 28%
5 | – | – | – | CS(=O)(=O)c1ccc(-n2nc(C(F)(F)F)cc2-c2ccc(F)cc2)cc1 [SC-58125, 5-(4-fluorophenyl)-1-(4-methylsulfonylphenyl)-3-trifluoromethyl-1H-pyrazole, reference compound] | – | – | 96.9 | 95 | 76 | 96 | % Inhibition of Writhing Response ([2]; 30 mg/kg oral, Administration Point 1: 10 minutes prior to acetic acid): 22%
6 | – | – | – | Cc1ccc(-c2cc(C(F)(F)F)nn2-c2ccc(S(N)(=O)=O)cc2)cc1 [YM-177, 4-[5-(4-methylphenyl)-3-trifluoromethyl-1H-pyrazol-1-yl]benzenesulfonamide, reference compound] | – | – | 25.5 | 65 | 37 | 44 | % Inhibition of Writhing Response ([2]; po, 30 mg/kg): 17%; % Inhibition against Reduction of Gain in Body Weight ([5]; measured next day): 21%; Edema Inhibition (%) Left Hind Paw (Non-inflamed Paw) ([5]; measured next day): 60%; Edema Inhibition (%) Right Hind Paw (Inflamed Paw) ([5]; measured next day): 41%; Inflammation Score Inhibition (%) ([5]; scored next day): 49%
7 | – | – | – | C[C@]12C=CC(=O)C=C1CC[C@@H]1[C@@H]2[C@@H](O)C[C@@]2(C)[C@H]1CC[C@]2(O)C(=O)CO [prednisolone, reference compound] | – | – | – | – | – | – | edema inhibition ([3]; 10 mg/kg oral daily): 70%; increase in edematized auricle thickness ([3]; 10 mg/kg oral daily): 0.04±0.01 mm; increase in edematized left hind paw volume ([4]; 10 mg/kg oral): 0.51 ± 0.02 mL; edema inhibition ([4]; 10 mg/kg oral): 31%
